Where a SMILES comes first, the peptide text is derived from it. [ ]: non-standard residue; d: D form. The star is where a group is joined. MeOCH2CH2OCH2CO = COCCOCC(=O)*; PEG = not defined here; PEG1 = NCCOCCC(=O)O
Experiments:
[1] = Hydrogel formation with dilute sodium hydroxide, Crystal Violet overlay; assay type: physicochemical; conditions: 8.3 mg/ml peptide, 16.7 mM NaOH, room temperature 5-10 min
Method: FIG. 2: Hydrogel formation of GL13 peptides. Hydrogels are overlaid with Crystal Violet solution. D=DGL13K; R=DGL13R; PEG-L=PEG-LGL13K; pro-D=PEG-pro-DGL13K; E4=PEG-E4-pro-DGL13K; L=LGL13K.
FIG. 8: Hydrogels were formed with 4.2 mg/ml peptide+sodium hydroxide at the concentrations shown. Hydrogels were overlaid with Crystal Violet. Two phases indicate the formation of a hydrogel; Phase mixing indicates the absence of hydrogel. The hydrogels formed at 6.7 mM NaOH were not stable overnight (not shown).
FIG. 9: Hydrogels were formed with 16.7 mM sodium hydroxide and peptides at the concentrations shown. D=DGL13K; L=LGL13K; R=DGL13R. Hydrogels were overlaid with Crystal Violet and imaged within 10 min. Two phases indicate the formation of a hydrogel; Phase mixing indicates the absence of hydrogel.
The antimicrobial peptide GL13K can form a hydrogel when the peptide is reacted with dilute sodium hydroxide. Hydrogels were formed by incubating 8.3 mg/ml peptide with 16.7 mM NaOH and incubating at room temperature for 5-10 min. Hydrogels were overlaid with Crystal Violet. Two phases indicate the formation of a hydrogel; Phase mixing indicates the absence of hydrogel.

[2] = test system: S. aureus; experiment: Peptide hydrogels placed on S. aureus plated on agar; assay type: cell-based, Staphylococcus aureus; conditions: hydrogel on agar plate
Method: FIG. 3. Peptide hydrogels on S. aureus.
(§1) To test antibacterial activity, S. aureus (FIG. 3) or P. aeruginosa (FIG. 4) were plated on agar and peptide hydrogels placed on top of the bacteria. The plates were incubated to allow a bacterial lawn to grow. […] The larger inhibition zone seen for DGL13R is consistent with a lack of hydrogel formation, which allowed the peptide solution to spread on the plate.

[3] = in vitro; assay type: cell-based; conditions: human, human red blood cells
Method: FIG. 7: The in vitro toxicity of soluble DGL13K and PEG-pro-DGL 13K was tested against human Red Blood Cells and hemolysis recorded (% lysis compared to dH2O).
The dose causing lysis of 50% (LD50) of human red blood cells (RBC) was determined and the therapeutic index (Tx Indx) was calculated as LD50/MIC.

[4] = test system: Pseudomonas aeruginosa; assay type: cell-based
Method: (§2) Standard broth dilution assays were performed to determine the Minimal Inhibitory Concentration (MIC) of each peptide against Pseudomonas aeruginosa (P.a.) or Staphylococcus aureus (S.a.) (Table 2).

[5] = test system: Staphylococcus aureus; assay type: cell-based
Method: as §2

[6] = test system: P. aeruginosa; experiment: Peptide hydrogels placed on P. aeruginosa plated on agar; assay type: cell-based, Pseudomonas aeruginosa; conditions: hydrogel on agar plate
Method: FIG. 4: Peptide hydrogels on P. aeruginosa Ac.Ac.=0.01% acetic acid mixed with NaOH (buffer control).
as §1

[7] = test system: mouse skin burn; experiment: Mouse burn wound healing model; assay type: in vivo; conditions: seven days after the burn
[8] = assay type: physicochemical
Method: FIG. 1: Turbidity of peptide solutions at 630 nm. Peptides were suspended in 0.01% acetic acid (our standard peptide solvent), Phosphate-Buffered Saline (PBS), pH 7.4 or dH2O.
LGL13K and DGL13K are not soluble in physiological salt solution (PBS). […] In FIG. 1, solubility is measured as the absence of optical density (OD) due to turbidity at 630 nm.

[9] = test system: Galleria mellonella (waxmoth larvae); conditions: in vivo
Method: FIG. 6: Galleria mellonella (wax moth larvae) were injected with liquid or hydrogel forms of the listed peptide. Larval survival was monitored for 48 h.
Hydrogels are less toxic in vitro and in vivo than the unmodified peptide. To test toxicity in vivo, hydrogels of DGL13K, PEG-pro-DGL13K (PEG-DGL13K) or liquid PEG-DGL13K were injected into Galleria mellonella (waxmoth larvae) and survival monitored for 48 hrs (FIG. 6). […] Hydrogel of PEG-pro-DGL13K was less toxic than hydrogel of the unmodified DGL13K peptide.

Compound	Hydrogel formation [1]	Growth of S. aureus lawn under peptide hydrogel [2]	HC50 [3] [µg/mL]	Minimal Inhibitory Concentration P.a. [4] [µg/mL]	Minimal Inhibitory Concentration S.a. [5] [µg/mL]	Growth of P. aeruginosa lawn under peptide hydrogel [6]	Improved healing compared to SSD-treated mice [7] [%]	Improved healing compared to the control mice ([7]; peptide in solution or hydrogel) [%]	Solubility in physiological salt solution (PBS) [8]	Toxicity of hydrogel compared with hydrogel of unmodified DGL13K [9]
CC[C@@H](C)[C@@H](NC(=O)[C@@H](CCCCN)NC(=O)CN)C(=O)N[C@@H](C(=O)N[C@H](CCCCN)C(=O)N[C@H](CC(C)C)C(=O)N[C@H](CCCCN)C(=O)N[C@H](C)C(=O)N[C@H](CO)C(=O)N[C@H](CC(C)C)C(=O)N[C@H](CCCCN)C(=O)N[C@H](CC(C)C)C(=O)N[C@H](CC(C)C)C(N)=O)[C@H](C)CC [DGL13K, NH2-Gly-d-Lys-d-Ile-d-Ile-d-Lys-d-Leu-d-Lys-d-Ala-d-Ser-d-Leu-d-Lys-d-Leu-d-Leu-CONH2] (H-G[dK][dI][dI][dK][dL][dK][dA][dS][dL][dK][dL][dL]-NH2)	formed hydrogels	prevented the growth	500	5.2	1.3 to 2.6	effectively prevented the growth	48	36		
CC[C@@H](C)[C@@H](NC(=O)[C@@H](CCCNC(=N)N)NC(=O)CN)C(=O)N[C@@H](C(=O)N[C@H](CCCNC(=N)N)C(=O)N[C@H](CC(C)C)C(=O)N[C@H](CCCNC(=N)N)C(=O)N[C@H](C)C(=O)N[C@H](CO)C(=O)N[C@H](CC(C)C)C(=O)N[C@H](CCCNC(=N)N)C(=O)N[C@H](CC(C)C)C(=O)N[C@H](CC(C)C)C(N)=O)[C@H](C)CC [DGL13R, NH2-Gly-d-Arg-d-Ile-d-Ile-d-Arg-d-Leu-d-Arg-d-Ala-d-Ser-d-Leu-d-Arg-d-Leu-d-Leu-CONH2] (H-G[dR][dI][dI][dR][dL][dR][dA][dS][dL][dR][dL][dL]-NH2)	did not form hydrogels		500	2.6	1.3 to 2.6	effectively prevented the growth			increased solubility	
CC[C@@H](C)[C@@H](NC(=O)[C@@H](CCCCN)NC(=O)CNC(=O)CCOCCN)C(=O)N[C@@H](C(=O)N[C@H](CCCCN)C(=O)N[C@H](CC(C)C)C(=O)N[C@H](CCCCN)C(=O)N[C@H](C)C(=O)N[C@H](CO)C(=O)N[C@H](CC(C)C)C(=O)N[C@H](CCCCN)C(=O)N[C@H](CC(C)C)C(=O)N[C@H](CC(C)C)C(N)=O)[C@H](C)CC [PEG-DGL13K, PEG-Gly-d-Lys-d-Ile-d-Ile-d-Lys-d-Leu-d-Lys-d-Ala-d-Ser-d-Leu-d-Lys-d-Leu-d-Leu-CONH2] (H-[PEG1]G[dK][dI][dI][dK][dL][dK][dA][dS][dL][dK][dL][dL]-NH2)				5 to 10.4					soluble in PBS	less toxic
CC[C@H](C)[C@H](NC(=O)[C@H](CCCCN)NC(=O)CNC(=O)COCCOC)C(=O)N[C@H](C(=O)N[C@@H](CCCCN)C(=O)N[C@@H](CC(C)C)C(=O)N[C@@H](CCCCN)C(=O)N[C@@H](C)C(=O)N[C@@H](CO)C(=O)N[C@@H](CC(C)C)C(=O)N[C@@H](CCCCN)C(=O)N[C@@H](CC(C)C)C(=O)N[C@@H](CC(C)C)C(N)=O)[C@@H](C)CC [PEG-LGL13K] (MeOCH2CH2OCH2CO-GKIIKLKASLKLL-NH2; N-terminus assumed)	formed hydrogels			20.8	83					
CC[C@@H](C)[C@@H](NC(=O)[C@@H](CCCCN)NC(=O)CNC(=O)[C@@H](C)NC(=O)CNC(=O)CNC(=O)[C@@H](CC(C)C)NC(=O)CCOCCN)C(=O)N[C@@H](C(=O)N[C@H](CCCCN)C(=O)N[C@H](CC(C)C)C(=O)N[C@H](CCCCN)C(=O)N[C@H](C)C(=O)N[C@H](CO)C(=O)N[C@H](CC(C)C)C(=O)N[C@H](CCCCN)C(=O)N[C@H](CC(C)C)C(=O)N[C@H](CC(C)C)C(N)=O)[C@H](C)CC [PEG-pro-DGL13K, PEG-d-Leu-Gly-Gly-d-Ala-Gly-d-Lys-d-Ile-d-Ile-d-Lys-d-Leu-d-Lys-d-Ala-d-Ser-d-Leu-d-Lys-d-Leu-d-Leu-CONH2] (H-[PEG1][dL]GG[dA]G[dK][dI][dI][dK][dL][dK][dA][dS][dL][dK][dL][dL]-NH2)			1000	10.4	5.2					less toxic
H-GKIIKLKASLKLL-NH2 [LGL13K]	formed hydrogels	prevented the growth	188	10.4	20.8				not soluble	
PEG-d-Glu-d-Glu-d-Glu-d-Glu-d-Leu-Gly-Gly-d-Ala-Gly-d-Lys-d-Ile-d-Ile-d-Lys-d-Leu-d-Lys-d-Ala-d-Ser-d-Leu-d-Lys-d-Leu-d-Leu-CONH2 ({PEG}-[dE][dE][dE][dE][dL]GG[dA]G[dK][dI][dI][dK][dL][dK][dA][dS][dL][dK][dL][dL]-NH2; reading uncertain) [PEG-E4-pro-DGL13K]	did not form hydrogels									
polymyxin B [reference compound]	does not form hydrogel									

Reference: patent US12441773B2, “Peptides, hydrogel compositions and methods of use thereof” (Regents of the University of Minnesota, priority 2019, dated 2025)
